Results taken from ChEMBL document CHEMBL1129849, “Synthesis and evaluation of delta lactams as nonpeptide HIV-protease inhibitors” (Bioorg Med Chem Lett, 1997).

What follows are compounds tested against Human immunodeficiency virus type 1 protease (Human immunodeficiency virus 1, UniProt Q72874) (assay: Compound was tested for the inhibitory activity against HIV-protease).

Q: With `O=C1N(Cc2ccccc2)C[C@H](O)[C@@H](Cc2ccccc2)N1Cc1ccccc1` as the compound, how does the Ki read?
A: The Ki was 11 µM.

Q: Which Ki does the source give for `O=C1N[C@H](CCc2ccccc2)[C@@H](O)[C@@H](Cc2ccccc2)N1Cc1ccccc1` here?
A: Its Ki is 0.066 µM.

Q: Which Ki does the source give for `O=C1[C@@H](Cc2ccccc2)C[C@@H](O)[C@@H](Cc2ccccc2)N1Cc1ccccc1` here?
A: The Ki was 9.4 µM.

Q: Which Ki does the source give for `O=C1N(Cc2ccccc2)C[C@@H](O)[C@@H](Cc2ccccc2)N1Cc1ccccc1` here?
A: The Ki was 0.0025 µM.
